Calls of active or inactive are those of the source. The calls are words filed in the database; no cut-off is given here.
How the values were obtained:
[1] = Therapeutic index, ratio of IC50 for human H9 cells to EC50 for HIV1 3B; assay type: cell-based; conditions: read-out: Ratio IC50/EC50
[2] = system: Human immunodeficiency virus 1; assay: Antiviral activity against HIV1 3B in H9 cells after 4 days by p24-antigen ELISA; assay type: functional, organism-based; conditions: for EC50: Human immunodeficiency virus 1, 3B, H9, 96 h
[3] = system: H9; assay: Cytotoxicity against human H9 cells after 4 days; assay type: cell-based; conditions: H9, 96 h

| Structure (SMILES) | selectivity ratio [1] | EC50 [2] [µM] | IC50 [3] [µM] | Activity [2] |
| --- | --- | --- | --- | --- |
| C/C=C(\C)C(=O)O[C@@H]1c2cc(OC)c(OC)c(OC)c2-c2c(cc3c(c2OC)OCO3)C[C@H](C)[C@@]1(C)O [TIGLOYLGOMISIN P] | 1.3 | 37 | > 49 |  |
| COc1cc2c(c(OC)c1OC)-c1c(cc(OC)c(OC)c1OC)C[C@H](C)[C@@H](C)C2 [DEOXYSCHISANDRIN] |  |  | > 60 | inactive |
| C/C=C(/C)C(=O)O[C@@H]1c2cc(OC)c(OC)c(OC)c2-c2c(cc3c(c2OC)OCO3)C[C@H](C)[C@@]1(C)O [ANGELOYLGOMISIN P] |  |  | > 49 | inactive |
| COc1cc2c(c(O)c1OC)-c1c(cc(OC)c(OC)c1OC)C[C@@H](C)[C@@H](C)C2 [SCHISANHENOL] | 7.4 | 5.7 | 42 |  |
| Cc1cn([C@H]2C[C@H](N=[N+]=[N-])[C@@H](CO)O2)c(=O)[nH]c1=O [ZIDOVUDINE] |  | 0.023 |  |  |
| C/C=C(/C)C(=O)O[C@H]1c2cc(OC)c(OC)c(OC)c2-c2c(cc3c(c2OC)OCO3)C[C@H](C)[C@]1(C)O [SCHISANTHERIN B] | 1.2 | 40 | > 49 |  |
| COc1cc2c(c(OC)c1OC)-c1c(cc3c(c1O)OCO3)C[C@H](C)[C@H](C)C2 | 19.4 | 2.4 | 47.1 |  |
| COc1cc2c(c(O)c1OC)-c1c(cc3c(c1OC)OCO3)C[C@H](C)[C@H](C)C2 (racemic) | > 68 | < 0.65 | 44.5 |  |
| COc1cc2c(c(OC)c1OC)-c1c(cc(OC)c(OC)c1OC)C[C@](C)(O)[C@@H](C)C2 [SCHIZANDRIN] |  |  | > 58 | inactive |

From ChEMBL document CHEMBL1158123, “Rubrisandrins A and B, lignans and related anti-HIV compounds from Schisandra rubriflora” (J Nat Prod, 2006)
